From US6028116A, “Substituted condensation products of 1H-indenyl-hydroxyalkanes with aldehydes for neoplasia” (Cell Pathways, Inc., priority 1998, dated 2000)
Like-named read-outs stand apart in the source and are kept apart here.

Experiments:
[1] = test system: human colon carcinoma cell line, SW-480; experiment: Growth inhibition, Sulforhodamine B (SRB) protein binding assay; format: cell-based; conditions: for inhibition at 100 µM: SW480, 144 h, SW-480, six days
Method: The compounds of Examples #1, #8, and #9 were assayed for their growth inhibitory activity on the human colon carcinoma cell line, SW-480 obtained from ATCC (Rockville, Md.), to ascertain the degree of growth inhibition. Growth inhibition of this cell line is indicative of a benefit on precancerous lesions and neoplasms. The cell line and growth assay employed for such experiments are well characterized, and are used to evaluate the anti-neoplastic properties of compounds. The assay is used by the United States National Cancer Institute in its screening program for new anti-cancer drugs.
Drug stock solutions were made in 100% DMSO and were then diluted with RPMI media for cell culture testing. All drug solutions were prepared fresh on the day of testing. The cultured cells were obtained at passage #99 and grown in RPMI media supplemented with 5% fetal calf serum, and 2 mM glutamine, 100 U/ml penicillin, […] streptomycin, and 0.25 μg/ml amphotericin. The cultures were maintained in a humidified atmosphere of 95% air and 5% CO2 at 37° C. The cultures were passaged at preconfluent densities using a solution of 0.05% trypsin and 0.53 mM EDTA. Cells were plated at 1000 cells/well for 96 well flat-bottom microtiter plates.
Tumor cell growth inhibition was assessed using the Sulforhodamine B (SRB) protein binding assay. […] For each plate, 6 wells were designated as no treatment controls, six wells as vehicle (0.1% DMSO) controls, and the remaining wells for drug dilutions with three wells per drug. At the end of the exposure period, the cells were fixed and stained with sulforhodamine B, a protein binding dye. The dye was then solubilized, and the optical density of the resulting solution was determined on a 96-well plate reader. The mean dye intensity of the treated wells was then divided by the mean dye intensity in the control wells (6 wells of each) to determine the effect of the drug on the cells. Dye intensity is proportional to the number of cells or amount of protein per well. The resultant "percent inhibition" value then represents the degree of growth inhibition caused by the drug.
In addition, a dose response for growth inhibition was determined for the compound of Example 9, and an IC50 value was determined. This value is equivalent to the concentration of drug needed to inhibit tumor cell growth by 50%. […] Each experiment included at least three wells per drug concentration. Concentration was plotted on a log scale on the X-axis.

[2] = test system: SW-480 colon adenocarcinoma cells; experiment: Apoptosis, DNA fragmentation (Cell Death Detection ELISA plus); format: cell-based, human; conditions: for EC50: SW-480, by data analysis software or estimated from effective concentration range
Method: (§1) Apoptosis was also measured based on the amount of fragmented DNA contained in cell lysates. Briefly, SW-480 colon adenocarcinoma cells were plated in 96-well microtitre plates ("MTP") at a density of 10K cells/well in 180 μl and were incubated for 24 hrs. Cells were then treated with 20 μl aliquots of appropriately diluted compound, and allowed to incubate for an additional 48 hrs.
After the incubation, samples were prepared according to the following steps. The MTP was centrifuged (15 min., 1000 rpm) and the supernatant was carefully removed by fast inversion of the MTP. The cell pellets in each well were resuspended in 200 μl lysis buffer and incubated for 45 min. at room temperature to lyse the cells. The lysates were then centrifuged (15 min., 1000 rpm) and 20 μl aliquots of the supernatant (=cytoplasmicfraction) were transferred into the streptavidin-coated MTP for analysis. Care was taken not to shake the lysed pellets in the MTP (=cell nucleii containing high molecular weight, unfragmented DNA). Samples were analyzed immediately, because storage at 4° C. or -20° C. reduces the ELISA-signals.
Samples were then processed according to a DNA fragmentation assay protocol, and dose-response curves were generated based on optical density readings. Quantification of DNA was done by a commercially available photometric enzyme-immunoassay manufactured by Mannheim-Boehringer under the name "Cell Death Detection ELISA ^plus ". The assay is based on a quantitative sandwich-enzyme-immunoassay-principle using mouse monoclonal antibodies directed against DNA and histones, respectively. This allows the specific determination of mono and oligonucleosomes in the cytoplasmatic fraction of cell lysates. In brief, the assay procedure is as follows. The sample (cell-lysate, serum, culture-supematant etc.) is placed into a streptavidin-coated MTP. Subsequently, a mixture of anti-histone-biotin and anti-DNA-POD is followed by incubation for 2 hours. During the incubation period, the anti-histone antibody binds to the histone-component of the nucleosomes and simultaneously fixes the immunocomplex to the streptavidin-coated MTP via its biotinylation. Additionally, the anti-DNA-POD antibody reacts with the DNA component of the nucleosomes. After removal of unbound antibodies by washing, the amount of nucleosomes is quantified by the POD retained in the immunocomplex. POD is determined photometrically with ABTS® (2,2'-Azino-di[3-ethylbenzthiazolin-sulfonate]) as substrate.
Fold stimulation (FS=ODmax/ODveh), an indicator of apoptotic response, was determined for each compound tested. EC50 values were determined either specifically by data analysis software, or by estimates based on the effective concentration range of each compound (ECR=min. effective dose-min. dose to peak effect). These FS and EC50 values for the tested compounds are listed above in Table 3.
(§2) In addition, using the DNA fragmentation test above, dose responses for the compounds of Example 8 and 9 were obtained.
Based on the data obtained from the DNA fragmentation tests in Tables 4 and 5, fold stimulations values for those compounds are also calculated at 100 μM by dividing the optical densities obtained at 100 μM by the optical densities of the control. Based on the data in Tables 4 and 5, fold stimulation values of 3.9 and 2.1 for the compounds of Examples 8 and 9 are obtained, accordingly.

[3] = target: T1, purified cyclooxygenase Type I (COX-I) (Ovis aries, UniProt P05979); experiment: Cyclooxygenase Type I (COX-I) inhibition; format: biochemical, ram; conditions: arachidonic acid 100 μM, 2.0 min at 37° C.
T1 construct: The COX-I was purified from ram seminal vesicles; from tissue; host or cells: ram seminal vesicles
T1 sequence (P05979 25-600): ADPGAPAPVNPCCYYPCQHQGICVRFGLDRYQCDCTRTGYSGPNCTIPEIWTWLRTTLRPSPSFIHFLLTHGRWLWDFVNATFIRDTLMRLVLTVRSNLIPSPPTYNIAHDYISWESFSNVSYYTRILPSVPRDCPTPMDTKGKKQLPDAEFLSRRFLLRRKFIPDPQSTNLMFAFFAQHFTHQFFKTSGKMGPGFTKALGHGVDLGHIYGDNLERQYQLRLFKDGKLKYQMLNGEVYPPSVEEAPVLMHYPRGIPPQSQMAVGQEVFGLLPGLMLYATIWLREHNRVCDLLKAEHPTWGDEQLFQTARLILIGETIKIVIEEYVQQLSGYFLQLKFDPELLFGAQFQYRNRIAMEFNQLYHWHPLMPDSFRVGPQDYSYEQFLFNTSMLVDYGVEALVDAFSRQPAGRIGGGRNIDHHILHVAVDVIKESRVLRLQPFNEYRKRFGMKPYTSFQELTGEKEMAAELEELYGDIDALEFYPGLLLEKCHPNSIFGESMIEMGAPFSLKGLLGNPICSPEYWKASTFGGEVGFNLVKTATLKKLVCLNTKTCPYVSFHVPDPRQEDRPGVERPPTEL
Method: COX-I catalyzes the formation of prostaglandins and thromboxane by the oxidative metabolism of arachidonic acid.
Briefly, purified COX-I was incubated with arachidonic acid (100 μM) for 2.0 min at 37° C. in the presence or absence of test compounds. The assay was terminated by the addition of TCA, and COX-I activity was determined by absorbance at 530 nm.

[4] = test system: SW-480 colon adenocarcinoma cells; experiment: Growth (% vehicle) in dose response of the DNA fragmentation test; format: cell-based; conditions: Homo sapiens, SW480, 48 h
Method: as §1, §2

[5] = test system: HT-29 human colon carcinoma cells; experiment: Apoptosis, morphology of apoptotic cells by fluorescent microscopy (acridine orange / ethidium bromide); format: cell-based
Method: Apoptosis was measured using an assay of cell death based on morphological characteristics of apoptotic cells (i.e., condensed chromatin). Drug preparation and cell culture conditions were the same as for the SRB assay described above, except that HT-29 human colon carcinoma cells were used. Confluent cultures were established in 12.5 cm^2 flasks by plating 0.5×10^6 cells/flask. The cultures were assayed for apoptosis by fluorescent microscopy following labeling with acridine orange and ethidium bromide. Floating and attached cells were collected by trypsinization and washed three times in PBS. One ml aliquots were centrifuged (3 g). The pellet was resuspended in 25 μl media and 1 μl of a dye mixture containing 100 μg/ml acridine orange and 100 μg/ml ethidium bromide prepared in PBS and mixed gently. Ten μl of the mixture were placed on a microscope slide and covered with a 22 mm^2 coverslip, which was examined with 40× dry objectives under epillumination by filter combination.
An observer blinded in regard to the identity of the samples scored at least 100 cells per sample. Apoptotic cells were identified by nuclear condensation of chromatin stained by the acridine orange or ethidium bromide.

[6] = test system: colonic polyps; conditions: cited from earlier work
[7] = Homo sapiens, SW480, 100 μM, FS=ODmax/ODveh, fold stimulation, SW-480, 48 hrs, read-out: DNA Fragmentation FS (100 μM)
[8] = Homo sapiens, SW480, 48 h, 100 μM, OD at 100 μM divided by OD of control, read-out: fold stimulation calculated at 100 μM from Tables 4 and 5

Row | Compound | inhibition at 100 µM [1] | fold induction at 100 µM [2, 7] | inhibition at 100 µM [3] | activity at 0.01 µM [4] | activity at 0.1 µM [4] | activity at 1 µM [4] | activity at 10 µM [4] | activity at 100 µM [4] | Apoptosis Level (Mean OD Value ± SD) ([2]; 0.01 μM) | Apoptosis Level (Mean OD Value ± SD) ([2]; 0.1 μM) | Apoptosis Level (Mean OD Value ± SD) ([2]; 1 μM) | Apoptosis Level (Mean OD Value ± SD) ([2]; 10 μM) | Apoptosis Level (Mean OD Value ± SD) ([2]; 100 μM) | fold induction at 100 µM [2, 8] | EC50 ([2]; Homo sapiens, SW480) | further results
1 | CSc1ccc(/C=C2/C(C)=C(CCO)c3cc(F)ccc32)cc1 [Example 1, (Z)-5-Fluoro-2-Methyl-1-(4-Methylthio-Benzylidene)-1H-3-Indenyl-(2-Hydroxy)Ethane] | 71% | 4.9 | 70% |  |  |  |  |  |  |  |  |  |  |  |  | 
2 | COc1cc(/C=C2/C(C)=C(CCO)c3cc(F)ccc32)cc(OC)c1OC [Example 8, (Z)-5-Fluoro-2-Methyl-1-(3,4,5-Trimethoxybenzylidene)-1H-3-Indenyl-(2-Hydroxy)Ethane] | 93% | 5.4 |  | 109 ± 9.2% | 105 ± 5.5% | 103 ± 6.6% | 24 ± 16% | 5 ± 0.6% | 0.272 ± 0.013 OD | 0.277 ± 0.044 OD | 0.304 ± 0.044 OD | 0.355 ± 0.049 OD | 0.974 ± 0.124 OD | 3.9 | 20 µM | activity at 0.001 µM ([4]; 0.001 μM): 101 ± 4.6%; activity at 500 µM ([4]; 500 μM): 9 ± 3.4%; Apoptosis Level (Mean OD Value ± SD) ([2]; 0.001 μM): 0.252 ± 0.017 OD; Apoptosis Level (Mean OD Value ± SD) ([2]; 500 μM): 0.76 ± 0.113 OD
3 | CC1=C(CCO)c2cc(F)ccc2/C1=C\c1ccc(S(C)(=O)=O)cc1 [Example 9, (Z)-5-Fluoro-2-Methyl-1-(4-Methylsulfonylbenzylidene)-1H-3-Indenyl-(2-Hydroxy)Ethane] | 84% | 6.5 | < 25% | 107 ± 7.4% | 111 ± 16.7% | 106 ± 6.3% | 103 ± 9.3% | 21 ± 0.65% | 0.272 ± 0.033 OD | 0.312 ± 0.05 OD | 0.296 ± 0.052 OD | 0.261 ± 0.022 OD | 0.742 ± 0.095 OD | 2.1 | 89.3 µM | activity at 0.05 µM ([4]; 0.05 μM): 108 ± 9.6%; activity at 0.5 µM ([4]; 0.5 μM): 114 ± 18.1%; activity at 5 µM ([4]; 5 μM): 100 ± 8.3%; activity at 50 µM ([4]; 50 μM): 35 ± 0.246%; IC50 ([1]; SW480, SW-480, obtained graphically from dose response): 29.2 µM; Apoptosis Level (Mean OD Value ± SD) ([2]; 0.05 μM): 0.285 ± 0.03 OD; Apoptosis Level (Mean OD Value ± SD) ([2]; 0.5 μM): 0.258 ± 0.03 OD; Apoptosis Level (Mean OD Value ± SD) ([2]; 5 μM): 0.239 ± 0.024 OD; Apoptosis Level (Mean OD Value ± SD) ([2]; 50 μM): 0.259 ± 0.068 OD; Morphology % Apoptotic Cells 100 μM ([5]; 100 μM): 98%
4 | CC1=C(CC(=O)O)c2cc(F)ccc2/C1=C\c1ccc(S(C)(=O)=O)cc1 [Exisulind, reference compound] |  |  |  |  |  |  |  |  |  |  |  |  |  |  | 425 µM | fold induction at 700 µM ([2]; Homo sapiens, SW480, 700 μM, FS=ODmax/ODveh, fold stimulation, SW-480, 48 hrs): 3.4; Morphology % Apoptotic Cells (@540 μM) ([5]; 540 μM): 48%
5 | CC1=C(CC(=O)O)c2cc(F)ccc2/C1=C\c1ccc([S+](C)[O-])cc1 (stereo not drawn) [sulindac] |  |  |  |  |  |  |  |  |  |  |  |  |  |  |  | gastric side effects ([6]; chronic administration, high cancer-risk patients): causes gastric side effects in many such patients; effect on colonic polyps ([6]; patients): Polyps virtually disappear
